# Results: PubChem BioAssay AID2060616 (Molecular Pharmacology Branch, DTP, NCI, 2025)
# Test system: 377384-186-R-J1-PDC complex spheroid viability
# Test: Anticancer human tumor 377384-186-R-J1-PDC patient-derived pancreatic carcinoma cell line growth inhibition [CLK]
# Settings: for IC50: curve of first compound; for viability, T/C: stronger effect = lower value
# Text: A high-throughput screen of multi-cell type tumor spheroids was designed to identify active combinations of […] and targeted small molecules. Complex spheroids include a stromal component modeled by human endothelial cells (HUVEC) and fibroblasts modeled by human mesenchymal stem cells (MSCs). The concentration ranges selected for each drug and investigational agent were based upon clinically achievable concentrations if the clinical Cmax of the agent was known.
# Compounds. The drugs and investigational agents: cirtuvivint (SM08502; NSC835563), CC-671 (NSC850746), vemurafenib (NSC761431), tapotoclax (NSC804041), sotorasib (NSC818433), adagrasib (NSC831453), MRTX-1133 (NSC836407), BAY2416964 (NSC825713), copanlisib (NSC816437), inavolisib (NSC800729), abemaciclib (NSC768073), osimertinib (NSC779217), entinostat (NSC756642), eltanexor (KPT-8602, NSC794443), venetoclax (NSC766270), ceralasertib (NSC777638), bortezomib (NSC756655), olaparib (NSC753686), talazoparib (NSC767125), alisertib (NSC759677), peposertib (NSC802822), gemcitabine (NSC613327), 5-fluorouracil (NSC19893), SN-38 (NSC673596), oxaliplatin (NSC266046), paclitaxel (NSC125973), and doxorubicin (NSC123127), were obtained from the National Cancer Institute (NCI) Developmental Therapeutics Program Chemical Repository. The FDA-approved anticancer drug set is available from the Developmental Therapeutics Program at https://dtp.cancer.gov/organization/dscb/obtaining/available plates.htm. […] The stock solutions were prepared in dimethyl sulfoxide (DMSO, Sigma-Aldrich, St. Louis, MO, cat. D2650), except for the platinum complexes which were prepared in saline (Quality Biological, Gaithersburg, MD, cat. 114-055-101), at 800-fold the tested concentration and stored at -70 degrees C prior to their use. All drugs and investigational agents were tested over a range starting from a high concentration at or near the clinical Cmax and decreasing in half-log increments. If the clinical Cmax for an agent had not been determined, the highest concentration tested was 10 microM.
# Cell Culture. All cells were maintained in an incubator at 37 degrees C and 5% CO2 with 95% humidity. The PDC lines were cultured according to standard operating procedures established by the NCI PDMR. Briefly, all PDCs were thawed and cultured in Matrigel-coated flasks prepared with a working solution of 1X Ham's F-12 nutrient mix, without supplementation (Invitrogen, Waltham, MA, cat. 11765054), 100 U/mL penicillin-streptomycin (Invitrogen, cat. 15140122), and 2.5% Matrigel (Corning Inc., Corning, NY, cat. 354248) for the first three passages. The 947758-054-R-J2-PDC line was cultured in 6B/Colon 1A media, which includes advanced DMEM/F-12 (Thermo Fisher Scientific, cat. 12634028), 10 mM HEPES (Thermo Fisher Scientific, cat. 15630080), 1X GlutaMAX supplement (Thermo Fisher Scientific, cat. 35050061), 0.1 mg/mL primocin (InvivoGen, cat. ant-pm-2), 10% defined fetal bovine serum, heat inactivated (HyClone Laboratories Inc., cat. SH30070.03HI), 1.25 mM N-Acetyl-L-cysteine (Sigma-Aldrich, cat. A9165), 10 mM nicotinamide (Sigma-Aldrich, cat. N0636), 1X B-27 supplement (Thermo Fisher Scientific, cat. 17504044), 1X N-2 supplement (Thermo Fisher Scientific, cat. 17502048), and 10 microM Y-27632 dihydrochloride (Tocris Bioscience, cat. 1254). The 876862-298-R-J1-PDC was cultured in 6E media, which includes all 6B/Colon 1A media components plus 50% L-WRN conditioned media (ATCC, cat. CRL-3276), 50 ng/mL recombinant human EGF recombinant protein (hEGF; Thermo Fisher Scientific, cat. PHG0311), 10 ng/mL recombinant human fibroblast growth factor 10 (hGFG-10; PeproTech, cat. 100-26), 1 ng/mL recombinant human fibroblast growth factor 2 (hFGF-2; PeproTech, cat. 100-18B), and 1 µM prostaglandin E2 (PGE2; Tocris, cat. 2296). The 227483-062-R1-J1-PDC line was cultured in Panc media, containing all 6E components except hFGF-2, with the addition of 500 nM SB-431542 (Selleckchem, cat. S1067) and 10 nM gastrin (Tocris, cat. 3006). […]
# [1] = second compound 0.0316 µM, first compound 0.0316 µM
# [2] = second compound 0.0316 µM, first compound 0.1 µM
# [3] = second compound 0.0316 µM, first compound 0.316 µM
# [4] = second compound 0.0316 µM, first compound 1 µM
# [5] = second compound 0.0316 µM, first compound 3.16 µM
# [6] = second compound 0.0316 µM, first compound 10 µM
# [7] = second compound 0.1 µM, first compound 0.0316 µM
# [8] = second compound 0.1 µM, first compound 0.1 µM
# [9] = second compound 0.1 µM, first compound 0.316 µM
# [10] = second compound 0.1 µM, first compound 1 µM
# [11] = second compound 0.1 µM, first compound 3.16 µM
# [12] = second compound 0.1 µM, first compound 10 µM
# [13] = second compound 0.316 µM, first compound 0.0316 µM
# [14] = second compound 0.316 µM, first compound 0.1 µM
# [15] = second compound 0.316 µM, first compound 0.316 µM
# [16] = second compound 0.316 µM, first compound 1 µM
# [17] = second compound 0.316 µM, first compound 3.16 µM
# [18] = second compound 0.316 µM, first compound 10 µM
# [19] = second compound 1 µM, first compound 0.0316 µM
# [20] = second compound 1 µM, first compound 0.1 µM
# [21] = second compound 1 µM, first compound 0.316 µM
# [22] = second compound 1 µM, first compound 1 µM
# [23] = second compound 1 µM, first compound 3.16 µM
# [24] = second compound 1 µM, first compound 10 µM
# [25] = second compound 3.16 µM, first compound 0.0316 µM
# [26] = second compound 3.16 µM, first compound 0.1 µM
# [27] = second compound 3.16 µM, first compound 0.316 µM
# [28] = second compound 3.16 µM, first compound 1 µM
# [29] = second compound 3.16 µM, first compound 3.16 µM
# [30] = second compound 3.16 µM, first compound 10 µM
# [31] = second compound 10 µM, first compound 0.0316 µM
# [32] = second compound 10 µM, first compound 0.1 µM
# [33] = second compound 10 µM, first compound 0.316 µM
# [34] = second compound 10 µM, first compound 1 µM
# [35] = second compound 10 µM, first compound 3.16 µM
# [36] = second compound 10 µM, first compound 10 µM
# 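Further: spheroids exposed to agents for 7 days before reading.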
# 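Wherever viability, T/C is given: luminescence signal used as a stand-in for viable cells.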
compound,measurement,setting,value
C#Cc1c(F)ccc2cc(O)cc(-c3ncc4c(N5CC6CCC(C5)N6)nc(OCC56CCCN5CC(F)C6)nc4c3F)c12 (stereo unspecified) + CN1CCN(c2cc(C(=O)Nc3cc4cc(-c5cnn(C)c5)ccc4cn3)ccn2)CC1,IC50,second compound 0.0316 µM,< 31.6 nM
same,IC50,second compound 0.1 µM,< 31.6 nM
same,IC50,second compound 0.316 µM,< 31.6 nM
same,IC50,second compound 1 µM,< 31.6 nM
same,IC50,second compound 3.16 µM,< 31.6 nM
same,IC50,second compound 10 µM,< 31.6 nM
same,"viability, T/C",[1],23.7%
same,"viability, T/C",[2],9.22%
same,"viability, T/C",[3],5.47%
same,"viability, T/C",[4],3.59%
same,"viability, T/C",[5],1.91%
same,"viability, T/C",[6],2.78%
same,"viability, T/C",[7],17.5%
same,"viability, T/C",[8],9.27%
same,"viability, T/C",[9],3.82%
same,"viability, T/C",[10],2.55%
same,"viability, T/C",[11],1.86%
same,"viability, T/C",[12],1.3%
same,"viability, T/C",[13],6.63%
same,"viability, T/C",[14],2.9%
same,"viability, T/C",[15],2.56%
same,"viability, T/C",[16],1.32%
same,"viability, T/C",[17],1.33%
same,"viability, T/C",[18],0.82%
same,"viability, T/C",[19],0.45%
same,"viability, T/C",[20],0.37%
same,"viability, T/C",[21],0.27%
same,"viability, T/C",[22],0.32%
same,"viability, T/C",[23],0.34%
same,"viability, T/C",[24],0.4%
same,"viability, T/C",[25],0.26%
same,"viability, T/C",[26],0.6%
same,"viability, T/C",[27],0.24%
same,"viability, T/C",[28],0.33%
same,"viability, T/C",[29],0.38%
same,"viability, T/C",[30],0.56%
same,"viability, T/C",[31],0.1%
same,"viability, T/C",[32],0.21%
same,"viability, T/C",[33],0.19%
same,"viability, T/C",[34],0.33%
same,"viability, T/C",[35],0.22%
same,"viability, T/C",[36],0.49%
CC(CO)NC(=O)c1cc(-c2ccc(Cl)cc2)nn(-c2cnn(C)c2)c1=O (stereo unspecified) + CN1CCN(c2cc(C(=O)Nc3cc4cc(-c5cnn(C)c5)ccc4cn3)ccn2)CC1,IC50,second compound 0.0316 µM,> 10000 nM
same,IC50,second compound 0.1 µM,> 10000 nM
same,IC50,second compound 0.316 µM,< 31.6 nM
same,IC50,second compound 1 µM,< 31.6 nM
same,IC50,second compound 3.16 µM,< 31.6 nM
same,IC50,second compound 10 µM,< 31.6 nM
same,"viability, T/C",[1],104%
same,"viability, T/C",[2],118%
same,"viability, T/C",[3],101%
same,"viability, T/C",[4],93.5%
same,"viability, T/C",[5],82.3%
same,"viability, T/C",[6],51.5%
same,"viability, T/C",[7],107%
same,"viability, T/C",[8],105%
same,"viability, T/C",[9],85.5%
same,"viability, T/C",[10],101%
same,"viability, T/C",[11],77.7%
same,"viability, T/C",[12],57%
same,"viability, T/C",[13],33.6%
same,"viability, T/C",[14],30.6%
same,"viability, T/C",[15],27.8%
same,"viability, T/C",[16],31.3%
same,"viability, T/C",[17],31.9%
same,"viability, T/C",[18],29.1%
same,"viability, T/C",[19],1.54%
same,"viability, T/C",[20],1.76%
same,"viability, T/C",[21],1.91%
same,"viability, T/C",[22],1.77%
same,"viability, T/C",[23],2.49%
same,"viability, T/C",[24],2.71%
same,"viability, T/C",[25],0.34%
same,"viability, T/C",[26],1%
same,"viability, T/C",[27],0.42%
same,"viability, T/C",[28],0.4%
same,"viability, T/C",[29],0.66%
same,"viability, T/C",[30],0.95%
same,"viability, T/C",[31],0.55%
same,"viability, T/C",[32],0.43%
same,"viability, T/C",[33],0.69%
same,"viability, T/C",[34],0.78%
same,"viability, T/C",[35],0.94%
same,"viability, T/C",[36],0.42%
COc1c(OCCCN2CCOCC2)ccc2c3n(c(=NC(=O)c4cnc(N)nc4)nc12)CCN3 + CN1CCN(c2cc(C(=O)Nc3cc4cc(-c5cnn(C)c5)ccc4cn3)ccn2)CC1,IC50,second compound 0.0316 µM,41.8 nM
same,IC50,second compound 0.1 µM,38.9 nM
same,IC50,second compound 0.316 µM,< 3.16 nM
same,IC50,second compound 1 µM,< 3.16 nM
same,IC50,second compound 3.16 µM,< 3.16 nM
same,IC50,second compound 10 µM,< 3.16 nM
same,"viability, T/C","second compound 0.0316 µM, first compound 0.00316 µM",103%
same,"viability, T/C","second compound 0.0316 µM, first compound 0.01 µM",72.8%
same,"viability, T/C",[1],55.2%
same,"viability, T/C",[2],37.8%
same,"viability, T/C",[3],24.9%
same,"viability, T/C",[4],15%
same,"viability, T/C","second compound 0.1 µM, first compound 0.00316 µM",89.9%
same,"viability, T/C","second compound 0.1 µM, first compound 0.01 µM",77.2%
same,"viability, T/C",[7],48%
same,"viability, T/C",[8],37.6%
same,"viability, T/C",[9],25.3%
same,"viability, T/C",[10],14.5%
same,"viability, T/C","second compound 0.316 µM, first compound 0.00316 µM",31.7%
same,"viability, T/C","second compound 0.316 µM, first compound 0.01 µM",22.1%
same,"viability, T/C",[13],18.7%
same,"viability, T/C",[14],16.6%
same,"viability, T/C",[15],14.2%
same,"viability, T/C",[16],11.9%
same,"viability, T/C","second compound 1 µM, first compound 0.00316 µM",2.68%
same,"viability, T/C","second compound 1 µM, first compound 0.01 µM",2.64%
same,"viability, T/C",[19],1.8%
same,"viability, T/C",[20],1.85%
same,"viability, T/C",[21],2.19%
same,"viability, T/C",[22],2.43%
same,"viability, T/C","second compound 3.16 µM, first compound 0.00316 µM",0.37%
same,"viability, T/C","second compound 3.16 µM, first compound 0.01 µM",0.47%
same,"viability, T/C",[25],0.92%
same,"viability, T/C",[26],0.45%
same,"viability, T/C",[27],0.44%
same,"viability, T/C",[28],1.06%
same,"viability, T/C","second compound 10 µM, first compound 0.00316 µM",0.5%
same,"viability, T/C","second compound 10 µM, first compound 0.01 µM",0.28%
same,"viability, T/C",[31],0.28%
same,"viability, T/C",[32],0.32%
same,"viability, T/C",[33],0.33%
same,"viability, T/C",[34],0.34%
